{
  "source": "patent US6737383B1",
  "about": "“Herbicidal oxadiazolidines” (priority 1999, dated 2004)",
  "key": {"giant foxtail": {"test_system": "giant foxtail", "experiment": "Test B pre/postemergence giant foxtail", "format": "in vivo, Setaria faberii", "how_it_was_run": "(§1)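 Test chemicals in a non-phytotoxic solvent mixture with surfactant were sprayed preemergence onto planted seeds and postemergence onto plants 2 to 18 cm tall (1- to 4-leaf stage). After twelve to sixteen days in a greenhouse, injury was visually rated against untreated controls from 0 (no effect) to 10 (complete control).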"}, "winter wheat [1]": {"test_system": "winter wheat", "experiment": "Test E winter wheat", "format": "in vivo, Triticum aestivum", "settings": "Preemergence"}, "green foxtail": {"test_system": "green foxtail", "experiment": "Test E green foxtail", "format": "in vivo, Setaria viridis", "settings": "Preemergence"}, "rape": {"test_system": "rape", "experiment": "Test B pre/postemergence rape", "format": "in vivo, Brassica napus", "how_it_was_run": "as §1"}, "wild oat": {"test_system": "wild oat", "experiment": "Test E wild oat", "format": "in vivo, Avena fatua", "settings": "Preemergence"}, "pigweed": {"test_system": "pigweed", "experiment": "Test B pre/postemergence pigweed", "format": "in vivo, Amaranthus retroflexus", "how_it_was_run": "as §1"}, "blackgrass": {"test_system": "blackgrass", "experiment": "Test E blackgrass", "format": "in vivo, Alopecurus myosuroides", "settings": "Preemergence"}, "Italian ryegrass": {"test_system": "Italian ryegrass", "experiment": "Test E Italian ryegrass", "format": "in vivo, Lolium multiflorum", "settings": "Preemergence"}, "morningglory": {"test_system": "morningglory", "experiment": "Test B pre/postemergence morningglory", "format": "in vivo, Ipomoea hederacea", "how_it_was_run": "as §1"}, "winter barley": {"test_system": "winter barley", "experiment": "Test E winter barley", "format": "in vivo, Hordeum vulgare", "settings": "Preemergence"}, "winter wheat [2]": {"test_system": "winter wheat", "experiment": "Test E winter wheat", "format": "in vivo, Triticum aestivum", "settings": "Postemergence", "procedure": "[…] All plant species were grown using normal greenhouse practices. Crop and weed species include annual bluegrass (Poa annua), blackgrass (Alopecurus myosuroides), black nightshade (Solanum nigra), chickweed (Stellaria media), common poppy (Papaver rhoeas), deadnettle (Lamium amplexicaule), downy brome (Bromus tectorum), field violet (Viola arvensis), galium (Galium aparine), green foxtail (Setaria viridis), Italian ryegrass (Lolium multiflorum), jointed goatgrass (Aegilops cylindrica), kochia (Kochia scoparia), lambsquarters (Chenopodium album), littleseed canarygrass (Phalaris minor), rape (Brassica napus), redroot pigweed (Amaranthus retroflexus), Russian thistle (Salsola kali), scentless chamomile (Matricaria inodora), spring barley (Hordeum vulgare), sugar beet (Beta vulgaris), sunflower (Helianthus annuus), ivyleaf speedwell (Veronica hederaefolia), spring wheat (Triticum aestivum), winter wheat (Triticum aestivum), wild buckwheat (Polygonum convolvulus), wild mustard (Sinapis arvensis), wild oat (Avena fatua), windgrass (Apera spica-venti) and winter barley (Hordeum vulgare).\nTreated plants and untreated controls were maintained in a greenhouse for approximately 21 to 28 days, after which all treated plants were compared to untreated controls and visually evaluated. […] A dash response (-) means no test result."}, "[3]": {"settings": "Preemergence, Rate 62 g/ha, scale of 0 to 10 where 0 is no effect and 10 is complete control"}, "[4]": {"settings": "Preemergence, Rate 250 g/ha, scale of 0 to 10 where 0 is no effect and 10 is complete control"}, "[5]": {"settings": "Preemergence, Rate 500 g/ha, scale of 0 to 10 where 0 is no effect and 10 is complete control"}, "[6]": {"settings": "Rate 125 g/ha, Postemergence, scale of 0 to 10 where 0 is no effect and 10 is complete control"}, "[7]": {"settings": "Rate 125 g/ha, Preemergence, scale of 0 to 10 where 0 is no effect and 10 is complete control"}, "[8]": {"settings": "Rate 250 g/ha, Postemergence, scale of 0 to 10 where 0 is no effect and 10 is complete control"}, "[9]": {"settings": "Rate 500 g/ha, Postemergence, scale 0 to 10, 0 no effect, 10 complete control"}, "[10]": {"settings": "Rate 125 g/ha, 0 to 100 scale (0 no effect, 100 complete control)"}, "[11]": {"settings": "Rate 500 g/ha, 0 to 100 scale where 0 is no effect and 100 is complete control"}, "[12]": {"settings": "Rate 1000 g/ha, 0 to 100 scale, 0 no effect, 100 complete control"}},
  "data": [
    {"smiles": "CC(C)N(C(=O)n1oc(=O)n(C2CCCC2)c1=O)c1ccc(F)cc1", "note": "[Compound 271]", "values": [
      {"measurement": "Giant foxtail plant response rating", "setting": "giant foxtail; [3]", "value": 8},
      {"measurement": "Giant foxtail plant response rating", "setting": "giant foxtail; [4]", "value": 10},
      {"measurement": "Plant response rating, Giant foxtail", "setting": "giant foxtail; [5]", "value": 10},
      {"measurement": "Giant foxtail plant response rating", "setting": "giant foxtail; [6]", "value": 3},
      {"measurement": "Giant foxtail plant response rating", "setting": "giant foxtail; [7]", "value": 10},
      {"measurement": "Plant response rating, Giant foxtail", "setting": "giant foxtail; [8]", "value": 4},
      {"measurement": "Giant foxtail plant response rating", "setting": "giant foxtail; [9]", "value": 7},
      {"measurement": "Plant response rating, Wheat (winter)", "setting": "winter wheat [1]; [10]", "value": 30},
      {"measurement": "Wheat (winter) plant response rating (0 to 100 scale)", "setting": "winter wheat [1]; Rate 250 g/ha", "value": 60},
      {"measurement": "Plant response rating, Wheat (winter)", "setting": "winter wheat [1]; [11]", "value": 50},
      {"measurement": "Plant response rating, Wheat (winter)", "setting": "winter wheat [1]; [12]", "value": 75},
      {"measurement": "Plant response rating, Green foxtail", "setting": "green foxtail; [10]", "value": 70},
      {"measurement": "Green foxtail plant response rating (0 to 100 scale)", "setting": "green foxtail; Rate 250 g/ha", "value": 100},
      {"measurement": "Plant response rating, Green foxtail", "setting": "green foxtail; [11]", "value": 100},
      {"measurement": "Plant response rating, Green foxtail", "setting": "green foxtail; [12]", "value": 100},
      {"measurement": "Rape plant response rating", "setting": "rape; [3]", "value": 2},
      {"measurement": "Rape plant response rating", "setting": "rape; [4]", "value": 10},
      {"measurement": "Plant response rating, Rape", "setting": "rape; [5]", "value": 10},
      {"measurement": "Rape plant response rating", "setting": "rape; [6]", "value": 3},
      {"measurement": "Rape plant response rating", "setting": "rape; [7]", "value": 4},
      {"measurement": "Plant response rating, Rape", "setting": "rape; [8]", "value": 4},
      {"measurement": "Rape plant response rating", "setting": "rape; [9]", "value": 6},
      {"measurement": "Plant response rating, Wild oat", "setting": "wild oat; [10]", "value": 50},
      {"measurement": "Wild oat plant response rating (0 to 100 scale)", "setting": "wild oat; Rate 250 g/ha", "value": 60},
      {"measurement": "Plant response rating, Wild oat", "setting": "wild oat; [11]", "value": 65},
      {"measurement": "Plant response rating, Wild oat", "setting": "wild oat; [12]", "value": 60},
      {"measurement": "Redroot pigweed plant response rating", "setting": "pigweed; [3]", "value": 3},
      {"measurement": "Redroot pigweed plant response rating", "setting": "pigweed; [4]", "value": 10},
      {"measurement": "Plant response rating, Redroot pigweed", "setting": "pigweed; [5]", "value": 10},
      {"measurement": "Redroot pigweed plant response rating", "setting": "pigweed; [6]", "value": 5},
      {"measurement": "Redroot pigweed plant response rating", "setting": "pigweed; [7]", "value": 8},
      {"measurement": "Plant response rating, Redroot pigweed", "setting": "pigweed; [8]", "value": 7},
      {"measurement": "Redroot pigweed plant response rating", "setting": "pigweed; [9]", "value": 8},
      {"measurement": "Plant response rating, Blackgrass", "setting": "blackgrass; [10]", "value": 30},
      {"measurement": "Blackgrass plant response rating (0 to 100 scale)", "setting": "blackgrass; Rate 250 g/ha", "value": 100},
      {"measurement": "Plant response rating, Blackgrass", "setting": "blackgrass; [11]", "value": 80},
      {"measurement": "Plant response rating, Blackgrass", "setting": "blackgrass; [12]", "value": 100},
      {"measurement": "Plant response rating, I. Ryegrass", "setting": "Italian ryegrass; [10]", "value": 60},
      {"measurement": "I. Ryegrass plant response rating (0 to 100 scale)", "setting": "Italian ryegrass; Rate 250 g/ha", "value": 100},
      {"measurement": "Plant response rating, I. Ryegrass", "setting": "Italian ryegrass; [11]", "value": 85},
      {"measurement": "Plant response rating, I. Ryegrass", "setting": "Italian ryegrass; [12]", "value": 100},
      {"measurement": "Morningglory plant response rating", "setting": "morningglory; [3]", "value": 1},
      {"measurement": "Morningglory plant response rating", "setting": "morningglory; [4]", "value": 2},
      {"measurement": "Plant response rating, Morningglory", "setting": "morningglory; [5]", "value": 7},
      {"measurement": "Morningglory plant response rating", "setting": "morningglory; [6]", "value": 2},
      {"measurement": "Morningglory plant response rating", "setting": "morningglory; [7]", "value": 1},
      {"measurement": "Plant response rating, Morningglory", "setting": "morningglory; [8]", "value": 8},
      {"measurement": "Morningglory plant response rating", "setting": "morningglory; [9]", "value": 8},
      {"measurement": "Plant response rating, Barley (winter)", "setting": "winter barley; [10]", "value": 35},
      {"measurement": "Barley (winter) plant response rating (0 to 100 scale)", "setting": "winter barley; Rate 250 g/ha", "value": 45},
      {"measurement": "Plant response rating, Barley (winter)", "setting": "winter barley; [11]", "value": 50},
      {"measurement": "Plant response rating, Barley (winter)", "setting": "winter barley; [12]", "value": 60},
      {"measurement": "Plant response rating, Wheat (winter)", "setting": "winter wheat [2]; Rate 125 g/ha, 0 to 100 scale, 0 is no effect, 100 is complete control", "value": 10},
      {"measurement": "Plant response rating, Wheat (winter)", "setting": "winter wheat [2]; Rate 1000 g/ha, 0 to 100 scale where 0 is no effect and 100 is complete control", "value": 0},
      {"measurement": "Wheat (winter) plant response rating", "setting": "winter wheat [2]; Rate 250 g/ha, 0 to 100 scale where 0 is no effect and 100 is complete control", "value": 10},
      {"measurement": "Plant response rating, Wheat (winter)", "setting": "winter wheat [2]; Rate 500 g/ha, 0 to 100 scale, 0 is no effect, 100 is complete control", "value": 0}
    ]}
  ]
}
